{
  "source": "patent US20040224981A1",
  "about": "“Antibacterial methods and compositions” (priority 2003, published 2004)",
  "system": "S. aureus",
  "assay": "MIC against S. aureus strains and clinical isolates (broth microdilution)",
  "assay_type": "cell-based, Staphylococcus aureus",
  "details": "Staphylococcus aureus; for MIC50: read-out: MIC50",
  "summary_of_the_method": "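Broth microdilution per NCCLS in cation-supplemented Mueller-Hinton broth, final inoculum 5×10^5 CFU/ml from 0.5 McFarland suspensions diluted 1:10. Trays incubated aerobically overnight with quality control strains each run. Checkerboard FIC index: ≦0.5 synergy, >0.5 to 4 additive/indifferent, >4.0 antagonism.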",
  "note": "Where two headings read alike, the source gives them in different places.",
  "data": [
    {"smiles": "C/C(=C\\C(=O)OCCCCCCCCC(=O)O)C[C@@H]1OC[C@H](C[C@@H]2O[C@H]2[C@@H](C)[C@H](C)O)[C@@H](O)[C@H]1O", "note": "[Mupirocin, Pseudomonic acid A]", "values": [
      {"measurement": "MIC", "setting": "ATCC29213, Table 2, S. aureus ATCC 29213, read-out: MIC", "value": 0.12, "unit": "mg/L"},
      {"measurement": "MIC", "setting": "ATCC29213, Table 3, S. aureus ATCC 29213, read-out: MIC", "value": 0.12, "unit": "mg/L"},
      {"measurement": "MIC", "setting": "ATCC29213, Table 4, S. aureus ATCC 29213, read-out: MIC", "value": 0.12, "unit": "mg/L"},
      {"measurement": "MIC", "setting": "ATCC43300, S. aureus ATCC 43300 (ORSA), read-out: MIC", "value": 0.12, "unit": "mg/L"},
      {"measurement": "MIC", "setting": "ATCC43300, Table 2, S. aureus ATCC 43300 (ORSA), read-out: MIC", "value": 0.25, "unit": "mg/L"},
      {"measurement": "MIC", "setting": "ATCC43300, Table 3, S. aureus ATCC 43300 (ORSA), read-out: MIC", "value": 0.25, "unit": "mg/L"},
      {"measurement": "MIC", "setting": "NRS 1 / VISA, S. aureus NRS1 (VISA), read-out: MIC", "value": 0.12, "unit": "mg/L"},
      {"measurement": "MIC", "setting": "NRS 1 / VISA, VISA, S. aureus NRS1 (Mu50), read-out: MIC", "value": 0.06, "unit": "mg/L"},
      {"measurement": "MIC", "setting": "NRS 3 / VISA, VISA, S. aureus NRS3 (HIP5827), read-out: MIC", "value": 0.5, "unit": "mg/L"},
      {"measurement": "MIC", "setting": "NRS 4 / VISA, VISA, S. aureus NRS4 (HIP5836), read-out: MIC", "value": 0.12, "unit": "mg/L"},
      {"measurement": "MIC", "setting": "NRS 18 / VISA, VISA, S. aureus NRS18 (HIP06854), read-out: MIC", "value": 8, "unit": "mg/L"},
      {"measurement": "MIC", "setting": "NRS 24 / VISA, VISA, S. aureus NRS24 (HIP09143), read-out: MIC", "value": 8, "unit": "mg/L"},
      {"measurement": "MIC", "setting": "NRS 49 / VISA, VISA, S. aureus NRS49 (Korea), read-out: MIC", "value": 0.03, "unit": "mg/L"},
      {"measurement": "MIC", "setting": "NRS54, Table 6, high-level mupirocin-resistant S. aureus NRS54, read-out: MIC", "value": "> 256", "unit": "mg/L"},
      {"measurement": "MIC", "setting": "NRS 54 / VISA, VISA, S. aureus NRS54 (Brazil), read-out: MIC", "value": "> 8", "unit": "mg/L"},
      {"measurement": "MIC", "setting": "NRS 56 / VISA, VISA, S. aureus NRS56 (Brazil), read-out: MIC", "value": 0.12, "unit": "mg/L"},
      {"measurement": "MIC", "setting": "NRS107, S. aureus NRS107 (HL Mup rest.), read-out: MIC", "value": "> 64", "unit": "mg/L"},
      {"measurement": "MIC", "setting": "NRS107, Table 2, S. aureus NRS107 (mupA), read-out: MIC", "value": "> 8", "unit": "mg/L"},
      {"measurement": "MIC", "setting": "NRS107, Table 3, S. aureus NRS107 (mupA), read-out: MIC", "value": "> 8", "unit": "mg/L"},
      {"measurement": "MIC", "setting": "NRS107, Table 4, S. aureus NRS107 (mupA), read-out: MIC", "value": "> 8", "unit": "mg/L"},
      {"measurement": "MIC", "setting": "NRS107, Table 6, high-level mupirocin-resistant S. aureus NRS107, read-out: MIC", "value": "> 256", "unit": "mg/L"},
      {"measurement": "MIC", "setting": "NRS127, Table 6, low-level mupirocin-resistant S. aureus NRS127, read-out: MIC", "value": 32, "unit": "mg/L"},
      {"measurement": "MIC", "setting": "S. aureus 10-420 (LL Mup. Rest.), read-out: MIC", "value": "> 64", "unit": "mg/L"},
      {"measurement": "MIC", "setting": "S. aureus 14-354 (LL Mup. Rest.), read-out: MIC", "value": 64, "unit": "mg/L"},
      {"measurement": "MIC", "setting": "S. aureus 25-670 (HL Mup. Rest.), read-out: MIC", "value": "> 64", "unit": "mg/L"},
      {"measurement": "MIC", "setting": "S. aureus 31-1334 (LL Mup Rest.), read-out: MIC", "value": 32, "unit": "mg/L"},
      {"measurement": "MIC", "setting": "S. aureus 36-1298 (LL Mup. Rest.), read-out: MIC", "value": 32, "unit": "mg/L"},
      {"measurement": "MIC", "setting": "S. aureus 87-2797 (HL Mup. Rest.), read-out: MIC", "value": "> 64", "unit": "mg/L"},
      {"measurement": "MIC", "setting": "S. aureus 87-2797 (Mup. Susc.), read-out: MIC", "value": 0.25, "unit": "mg/L"},
      {"measurement": "MIC", "setting": "S. aureus 101-100 (Mup. Susc.), read-out: MIC", "value": "< 0.06", "unit": "mg/L"},
      {"measurement": "MIC", "setting": "S. aureus LZ1 (HL Mup rest.), read-out: MIC", "value": "> 64", "unit": "mg/L"},
      {"measurement": "MIC", "setting": "S. aureus LZ6 (HL Mup rest.), read-out: MIC", "value": "> 64", "unit": "mg/L"},
      {"measurement": "MIC", "setting": "S. aureus LZ8 (LL Mup. Rest.), read-out: MIC", "value": 32, "unit": "mg/L"},
      {"measurement": "MIC", "setting": "S. aureus LZ9, read-out: MIC", "value": 0.25, "unit": "mg/L"},
      {"measurement": "MIC", "setting": "S. aureus LZ10, read-out: MIC", "value": 0.25, "unit": "mg/L"},
      {"measurement": "MIC", "setting": "S. aureus Miles Hall, read-out: MIC", "value": 64, "unit": "mg/L"},
      {"measurement": "MIC", "setting": "S. aureus Oxford, read-out: MIC", "value": 0.12, "unit": "mg/L"},
      {"measurement": "MIC", "setting": "Table 6, S. aureus (mupirocin-susceptible) 010-100, read-out: MIC", "value": 0.06, "unit": "mg/L"},
      {"measurement": "MIC", "setting": "Table 6, S. aureus (mupirocin-susceptible) 087-2789, read-out: MIC", "value": 0.12, "unit": "mg/L"},
      {"measurement": "MIC", "setting": "Table 6, S. aureus (mupirocin-susceptible) LZ9, read-out: MIC", "value": 0.12, "unit": "mg/L"},
      {"measurement": "MIC", "setting": "Table 6, S. aureus (mupirocin-susceptible) LZ10, read-out: MIC", "value": 0.12, "unit": "mg/L"},
      {"measurement": "MIC", "setting": "Table 6, high-level mupirocin-resistant S. aureus 010-420, read-out: MIC", "value": "> 256", "unit": "mg/L"},
      {"measurement": "MIC", "setting": "Table 6, high-level mupirocin-resistant S. aureus 25-670, read-out: MIC", "value": "> 256", "unit": "mg/L"},
      {"measurement": "MIC", "setting": "Table 6, high-level mupirocin-resistant S. aureus 87-2797, read-out: MIC", "value": "> 256", "unit": "mg/L"},
      {"measurement": "MIC", "setting": "Table 6, high-level mupirocin-resistant S. aureus 1079101, read-out: MIC", "value": "> 256", "unit": "mg/L"},
      {"measurement": "MIC", "setting": "Table 6, high-level mupirocin-resistant S. aureus LZ1, read-out: MIC", "value": "> 256", "unit": "mg/L"},
      {"measurement": "MIC", "setting": "Table 6, high-level mupirocin-resistant S. aureus LZ6, read-out: MIC", "value": "> 256", "unit": "mg/L"},
      {"measurement": "MIC", "setting": "Table 6, low-level mupirocin-resistant S. aureus 014-354, read-out: MIC", "value": 16, "unit": "mg/L"},
      {"measurement": "MIC", "setting": "Table 6, low-level mupirocin-resistant S. aureus 031-1334, read-out: MIC", "value": 16, "unit": "mg/L"},
      {"measurement": "MIC", "setting": "Table 6, low-level mupirocin-resistant S. aureus 036-1298, read-out: MIC", "value": 16, "unit": "mg/L"},
      {"measurement": "MIC", "setting": "Table 6, low-level mupirocin-resistant S. aureus 1081148, read-out: MIC", "value": 16, "unit": "mg/L"},
      {"measurement": "MIC", "setting": "Table 6, low-level mupirocin-resistant S. aureus LZ8, read-out: MIC", "value": 16, "unit": "mg/L"},
      {"measurement": "MIC", "setting": "Table 6, low-level mupirocin-resistant S. aureus Miles Hall, read-out: MIC", "value": 32, "unit": "mg/L"},
      {"measurement": "MIC", "setting": "VISA, three of the VISA isolates (poor activity), read-out: MICs", "value": "> 8", "unit": "mg/L"},
      {"measurement": "MIC50", "setting": "all S. aureus isolates of Table 6", "value": 32, "unit": "mg/L"},
      {"measurement": "MIC90", "setting": "all S. aureus isolates of Table 6, read-out: MIC90", "value": "> 256", "unit": "mg/L"},
      {"measurement": "MIC90", "setting": "all S. aureus strains of Table 1, read-out: MIC 90", "value": "> 64", "unit": "mg/L"},
      {"measurement": "MIC50", "setting": "oxacillin-resistant S. aureus, Oxa-R (42)", "value": 0.12, "unit": "mg/L"}
    ]}
  ]
}
